US20210127673A1, “HERBICIDES” (SYNGENTA PARTICIPATIONS AG, priority 2016, published 2021)

Columns and labels:
Type in all cases: in vivo
Conditions in all cases: evaluated after 13 days
[1] = system: Triticum aestivium (TRZAW); experiment: Post-emergence herbicidal activity, Triticum aestivium; parameters: key: 5=total damage to plant; 0=no damage to plant
Description: (§1) Seeds of a variety of test species were sown in standard soil in pots: Triticum aestivium (TRZAW), Avena fatua (AVEFA), Alopecurus myosuroides (ALOMY), Echinochloa crus-galli (ECHCG), Lolium perenne (LOLPE), Zea Mays (ZEAMX), Abutilon theophrasti (ABUTH), Amaranthus retroflexus (AMARE) and Setaria faberi (SETFA). After 8 days cultivation (post-emergence) under controlled conditions in a glasshouse (at 24/16° C., day/night; 14 hours light; 65% humidity), the plants were sprayed with an aqueous spray solution derived from the formulation of the technical active ingredient in acetone/water (50:50) solution containing 0.5% Tween 20 (polyoxyethelyene sorbitan monolaurate, CAS RN 9005-64-5). The test plants were then grown in a glasshouse under controlled conditions (at 24/16° C., day/night; 14 hours light; 65% humidity) and watered twice daily. After 13 days, the test was evaluated (5=total damage to plant; 0=no damage to plant).

[2] = system: Echinochloa crus-galli (ECHCG); experiment: Pre-emergence herbicidal activity, Echinochloa crus-galli; parameters: key: 5=total damage to plant; 0=no damage to plant
Description: (§2) Seeds of a variety of test species were sown in standard soil in pots: Triticum aestivium (TRZAW), Avena fatua (AVEFA), Alopecurus myosuroides (ALOMY), Echinochloa crus-galli (ECHCG), Lolium perenne (LOLPE), Zea Mays (ZEAMX), Abutilon theophrasti (ABUTH), Amaranthus retroflexus (AMARE) and Setaria faberi (SETFA). After cultivation for one day (pre-emergence) under controlled conditions in a glasshouse (at 24/16° C., day/night; 14 hours light; 65% humidity), the plants were sprayed with an aqueous spray solution derived from the formulation of the technical active ingredient in acetone/water (50:50) solution containing 0.5% Tween 20 (polyoxyethelyene sorbitan monolaurate, CAS RN 9005-64-5). The test plants were then grown in a glasshouse under controlled conditions (at 24/16°, day/night; 14 hours light; 65% humidity) and watered twice daily. After 13 days, the test was evaluated (5=total damage to plant; 0=no damage to plant).

[3] = system: Echinochloa crus-galli (ECHCG); experiment: Post-emergence herbicidal activity, Echinochloa crus-galli; parameters: key: 5=total damage to plant; 0=no damage to plant
Description: as §1

Lolium perenne (LOLPE) [4] = experiment: Pre-emergence herbicidal activity, Lolium perenne; parameters: key: 5=total damage to plant; 0=no damage to plant
Description: as §2

Setaria faberi (SETFA) [5] = experiment: Pre-emergence herbicidal activity, Setaria faberi; parameters: key: 5=total damage to plant; 0=no damage to plant
Description: as §2

Avena fatua (AVEFA) [6] = experiment: Pre-emergence herbicidal activity, Avena fatua; parameters: key: 5=total damage to plant; 0=no damage to plant
Description: as §2

[7] = system: Triticum aestivium (TRZAW); experiment: Pre-emergence herbicidal activity, Triticum aestivium; parameters: key: 5=total damage to plant; 0=no damage to plant
Description: as §2

Setaria faberi (SETFA) [8] = experiment: Post-emergence herbicidal activity, Setaria faberi; parameters: key: 5=total damage to plant; 0=no damage to plant
Description: as §1

Avena fatua (AVEFA) [9] = experiment: Post-emergence herbicidal activity, Avena fatua
Description: as §1

[10] = system: Alopecurus myosuroides (ALOMY); experiment: Pre-emergence herbicidal activity, Alopecurus myosuroides; parameters: key: 5=total damage to plant; 0=no damage to plant
Description: as §2

[11] = system: Alopecurus myosuroides (ALOMY); experiment: Post-emergence herbicidal activity, Alopecurus myosuroides; parameters: key: 5=total damage to plant; 0=no damage to plant
Description: as §1

Lolium perenne (LOLPE) [12] = experiment: Post-emergence herbicidal activity, Lolium perenne; parameters: key: 5=total damage to plant; 0=no damage to plant
Description: as §1

SMILES | Control of TRAZW after post-emergence application (score 0-5) ([1]; 1000 g/ha) | Control of ECHCG after pre-emergence application (score 0-5) ([2]; 1000 g/ha) | Control of ECHCG after post-emergence application (score 0-5) ([3]; 1000 g/ha) | Control of LOLPE after pre-emergence application (score 0-5) (Lolium perenne (LOLPE) [4]; 1000 g/ha) | Control of SETFA after pre-emergence application (score 0-5) (Setaria faberi (SETFA) [5]; 1000 g/ha) | Control of AVEFA after pre-emergence application (score 0-5) (Avena fatua (AVEFA) [6]; 1000 g/ha) | Control of TRAZW after pre-emergence application (score 0-5) ([7]; 1000 g/ha) | Control of SETFA after post-emergence application (score 0-5) (Setaria faberi (SETFA) [8]; 1000 g/ha) | Control of AVEFA after post-emergence application (score 0-5) (Avena fatua (AVEFA) [9]; 1000 g/ha) | Control of ALOMY after pre-emergence application (score 0-5) ([10]; 1000 g/ha) | Control of ALOMY after post-emergence application (score 0-5) ([11]; 1000 g/ha) | Control of LOLPE after post-emergence application (score 0-5) (Lolium perenne (LOLPE) [12]; 1000 g/ha) | also measured
CN1COCN(c2ccc(-c3cncc(F)c3)nc2C(F)(F)F)C1=O [Compound B121, 3-[6-(5-fluoro-3-pyridyl)-2-(trifluoromethyl)-3-pyridyl]-5-methyl-1,3,5-oxadiazinan-4-one] | 0 | 2 | 3 | 0 | 4 | 0 | 0 | 5 | 3 | 0 | 0 | 2 | 
CNC(=O)Nc1ccc(-c2cncc(F)c2)nc1C(F)(F)F [Compound B49] | 0 | 3 | 4 | 0 | 4 | 2 | 0 | 4 | 2 | 0 | 0 | 2 | 
CC(C)NC(=O)Nc1ccc(-c2cncnc2)nc1C(F)(F)F [Compound B44] | 1 | 3 | 4 | 1 | 3 | 2 | 0 | 4 | 3 | 0 | 1 | 2 | 
CCCCNC(=O)Nc1ccc(-c2cncc(F)c2)nc1C(F)(F)F [Compound B106] |  |  |  |  |  |  |  |  |  |  |  |  | Control of TRAZW after post-emergence application (score 0-5) ([1]; 250 g/ha): 0; Control of ECHCG after pre-emergence application (score 0-5) ([2]; 250 g/ha): 1; Control of ECHCG after post-emergence application (score 0-5) ([3]; 250 g/ha): 3; Control of LOLPE after pre-emergence application (score 0-5) (Lolium perenne (LOLPE) [4]; 250 g/ha): 1; Control of SETFA after pre-emergence application (score 0-5) (Setaria faberi (SETFA) [5]; 250 g/ha): 5; Control of AVEFA after pre-emergence application (score 0-5) (Avena fatua (AVEFA) [6]; 250 g/ha): 1; Control of TRAZW after pre-emergence application (score 0-5) ([7]; 250 g/ha): 0; Control of SETFA after post-emergence application (score 0-5) (Setaria faberi (SETFA) [8]; 250 g/ha): 5; Control of AVEFA after post-emergence application (score 0-5) (Avena fatua (AVEFA) [9]; 250 g/ha): 3; Control of ALOMY after pre-emergence application (score 0-5) ([10]; 250 g/ha): 0; Control of ALOMY after post-emergence application (score 0-5) ([11]; 250 g/ha): 0; Control of LOLPE after post-emergence application (score 0-5) (Lolium perenne (LOLPE) [12]; 250 g/ha): 1
CCCCOC(=O)Nc1ccc(-c2cncc(F)c2)nc1C(F)(F)F [Compound B58] | 0 | 2 | 3 | 1 | 2 | 1 | 0 | 5 | 2 | 0 | 0 | 2 | 
O=C(Nc1ccc(-c2cncc(F)c2)nc1C(F)(F)F)OCc1ccc(Cl)cc1 [Compound B105] | 0 | 2 | 4 | 1 | 5 | 1 | 0 | 5 | 3 | 0 | 0 | 1 | 
CN(C(=O)N1CCOCC1)c1ccc(-c2cncc(F)c2)nc1C(F)(F)F [Compound B67] | 1 | 3 | 4 | 1 | 4 | 0 | 0 | 4 | 2 | 0 | 1 | 1 | 
O=C(Nc1ccc(-c2cncc(F)c2)nc1C(F)(F)F)NC1CCCC1 [Compound B50] | 0 | 2 | 4 | 1 | 4 | 1 | 0 | 5 | 3 | 0 | 0 | 1 | 
COCCNC(=O)Nc1ccc(-c2cncc(F)c2)nc1C(F)(F)F [Compound B60] | 1 | 4 | 5 | 1 | 2 | 1 | 0 | 5 | 2 | 0 | 1 | 2 | 
CC(C)(C)OC(=O)N(Cc1ccc(F)cc1F)c1ccc(-c2cncc(F)c2)nc1C(F)(F)F [Compound B3] | 0 | 0 | 2 | 0 | 0 | 0 | 0 | 3 | 2 | 0 | 0 | 0 | 
O=C(Nc1ccc(-c2cncc(F)c2)nc1C(F)(F)F)OCC1CC1 [Compound B94] | 0 | 4 | 5 | 2 | 5 | 3 | 0 | 5 | 3 | 1 | 0 | 3 | 
